Experiments:
Assay type in all cases: in vivo
[1] = tested on: adult brown dog ticks (Rhipicephalus sanguineus); test: Rhipicephalus sanguineus in-vitro contact test with adult brown dog ticks; settings: after 48 hours, read-out: efficacy (ticks dead or moribund); for pest or weed control at 1 µg/cm2, 100 g/ha: 1 μg/cm^2 (=100 g/ha); for pest or weed control at 5 µg/cm2, 500 g/ha: 5 μg/cm^2 (=500 g/ha)
Outline: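 Compound in acetone coated onto glass tube inner walls at 900 ppm, giving 5 μg/cm^2. Adult ticks (5-10 per tube) held at room temperature for 48 h, then placed on a 45-50° C. heating plate for up to 5 min. Ticks unable to climb away counted dead or moribund; efficacy given as % dead/moribund.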

[2] = tested on: Anopheles funestus strain FUMOZ-R; test: Anopheles funestus test (ANPHFU surface treatment & contact assay); settings: surface concentration 20 mg/m^2, 30 minutes exposure, 24 hours after contact, read-out: efficacy (mortality)
Method: (§1) Solvent: Aceton+2000 ppm rapeseed oil methyl ester (RME)
(§2) In order to produce a sufficient, active ingredient containing solution it is necessary to solve the test compound in the solvent-mix (acetone at 2 mg/ml/RME 2000 ppm). This solution is pipetted onto a glazed tile and after evaporation of the acetone, adult mosquitoes of the species Anopheles funestus strain FUMOZ-R (Hunt et al., Med. Vet. Entomol. 2005 September; 19(3): 271-275) are placed onto the dried surface. The exposure time is 30 minutes.
(§3) Mortality in percent (%) is determined 24 hours after contact of the insects to the treated surface. 100% mortality means that all tested insects are dead, whereas 0% means that no insect died.

[3] = tested on: larvae of the banded cucumber beetle (Diabrotica balteata); test: Diabrotica balteata spray test; settings: 168 h, after 7 days, wheat seeds, read-out: efficacy (seedlings grown up); for pest or weed control at 32 µg/disc, 100 g/ha: 100 g/ha (=32 μg/well); for pest or weed control at 160 µg/disc, 500 g/ha: 500 g/ha (=160 μg/well)
Outline: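 Germinated wheat seedlings (5 per well, agar plates) sprayed with compound in acetone/DMF diluted in water with 1000 ppm emulsifier, then infested with 10-20 larvae per unit. Efficacy scored after 7 days as % seedling growth relative to untreated, uninfested control (100% = normal growth, 0% = none).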

[4] = tested on: cattle tick larvae (Rhipicephalus microplus), strain Parkhurst, resistant against synthetic pyrethroids; test: Rhipicephalus (Boophilus) microplus in-vitro contact test, larval cattle tick; settings: 5 μg/cm^2 (=500 g/ha), after 48 hours, read-out: efficacy (larvae dead or moribund)
Outline: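 Acetone solutions of compound were coated on glass tube walls (900 ppm giving 5 μg/cm^2) and dried. 20–50 pyrethroid-resistant Parkhurst larvae were held per tube at 27° C and 85% relative humidity; after 48 h negative geotaxis scored efficacy as percent larvae dead or moribund.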

[5] = tested on: Blattella germanica strain PAULINIA; test: Blattella germanica test (BLTTGE surface treatment & contact assay); settings: 24 hours after contact, read-out: efficacy (mortality)
Method: as §1
as §2, with “animals” for “mosquitoes”, “Blattella germanica” for “Anopheles funestus”, “PAULINIA” for “FUMOZ-R (Hunt et al., Med. Vet. Entomol. 2005 September; 19(3): 271-275)”
as §3

[6] = tested on: Aedes aegypti strain MONHEIM; test: Aedes aegypti test (AEDSAE surface treatment & contact assay); settings: 24 hours after contact, read-out: efficacy (mortality)
Method: as §1
(§4) In order to produce a sufficient, active ingredient containing solution it is necessary to solve the test compound in the solvent-mix (acetone at 2 mg/ml/RME 2000 ppm). This solution is pipetted onto a glazed tile and after evaporation of the acetone, adult mosquitoes of the species Aedes aegypti strain MONHEIM are placed onto the dried surface. The exposure time is 30 minutes. Mortality in percent (%) is determined 24 hours after contact of the insects to the treated surface. 100% mortality means that all tested insects are dead, whereas 0% means that no insect died.

[7] = tested on: brown planthopper (Nilaparvata lugens); test: Nilaparvata lugens spray test; settings: in Oryza sativa, 96 h
Outline: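 Rice plants (Oryza sativa) sprayed with compound in acetone/DMF diluted in water containing 1000 ppm alkylarylpolyglycol ether emulsifier, then infested with planthoppers. Mortality % scored after 4 days (100% = all killed, 0% = none killed).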

[8] = tested on: green peach aphid (Myzus persicae); test: Myzus persicae spray test; settings: foliar, 120 h, after 5 days, Chinese cabbage leaf disks
Outline: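 Chinese cabbage leaf disks carrying all instars of Myzus persicae were sprayed with compound. The formulation was acetone/dimethylformamide diluted in water with 1000 ppm alkylarylpolyglycol ether emulsifier. Percent mortality was scored after 5 days, with 100% meaning all aphids killed.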

[9] = tested on: adult cat fleas (Ctenocephalides felis); test: Ctenocephalides felis in-vitro contact test, adult cat flea; settings: 5 μg/cm^2 (=500 g/ha), after 48 hours, read-out: efficacy (fleas dead or moribund)
Outline: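 Acetone solutions were coated on glass tube walls, 900 ppm giving 5 μg/cm^2. After drying, 5-10 adult fleas per tube were held 48 h at room temperature. Fleas unable to climb away from a 45-50 °C heating plate within 5 min were scored dead or moribund, as % efficacy.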

[10] = tested on: fall armyworm larvae (Spodoptera frugiperda); test: Spodoptera frugiperda spray test (maize leaf sections); settings: 168 h
Outline: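 Maize leaf sections were sprayed with compound formulated in acetone/DMF and diluted in water containing 1000 ppm emulsifier. Once dry, sections were infested with fall armyworm larvae. Mortality (%) was scored after 7 days.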

[11] = tested on: Musca domestica strain WHO-N; test: Musca domestica test (MUSCDO surface treatment & contact assay); settings: 24 hours after contact, read-out: efficacy (mortality)
Method: as §1
as §4, with “flies” for “mosquitoes”, “Musca domestica” for “Aedes aegypti”, “WHO-N” for “MONHEIM”

[12] = tested on: larvae of the southern green stink bug (Nezara viridula); test: Nezara viridula spray test; settings: in Hordeum vulgare, 96 h
Outline: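 Barley plants infested with Nezara viridula larvae were sprayed with compound in acetone/dimethylformamide, diluted in water containing 1000 ppm alkylarylpolyglycol ether emulsifier. Mortality (%) was scored after 4 days; 100% means all stink bugs killed.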

[13] = tested on: southern root-knot nematode (Meloidogyne incognita); test: Meloidogyne incognita test; settings: 336 h, after 14 days, read-out: nematicidal activity (gall formation)
Method: Solvent: 125.0 parts by weight of acetone
To produce a suitable preparation of active compound, 1 part by weight of active compound is mixed with the stated amount of solvent, and the concentrate is diluted with water to the desired concentration.
Vessels are filled with sand, a solution of the active ingredient, a suspension containing eggs and larvae of the southern root-knot nematode (Meloidogyne incognita) and salad seeds. The salad seeds germinate and the seedlings grow. Galls develop in the roots.
After 14 days the nematicidal activity is determined on the basis of the percentage of gall formation. 100% means no galls were found and 0% means the number of galls found on the roots of the treated plants was equal to that in untreated control plants.

[14] = tested on: two spotted spidermite (Tetranychus urticae); test: Tetranychus urticae spray test, OP-resistant; settings: foliar, 144 h, after 6 days, French bean leaf disks
Method: Solvent: 78.0 parts by weight acetone • 1.5 parts by weight dimethylformamide
Emulsifier: alkylarylpolyglycol ether
To produce a suitable preparation of active compound, 1 part by weight of active compound is mixed with the stated amount of solvents and is diluted with water, containing an emulsifier concentration of 1000 ppm, to the desired concentration. Further test concentrations are prepared by dilution with emulsifier containing water.
French bean (Phaseolus vulgaris) leaf disks infected with all instars of the two spotted spidermite (Tetranychus urticae), are sprayed with a preparation of the active ingredient of the desired concentration.
After 6 days mortality in % is determined. 100% means all spider mites have been killed and 0% means none of the spider mites have been killed.

[15] = tested on: green peach aphid (Myzus persicae); test: Myzus persicae oral test; settings: 120 h
Outline: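 Oral uptake format: water-diluted acetone concentrate of compound is blended into IPL41 medium carrying 33%+15% sugar and offered under a parafilm membrane. Percentage of dead insects is recorded after 5 days.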

[16] = tested on: adult engorged female ticks (Rhipicephalus microplus); test: Rhipicephalus (Boophilus) microplus injection test; settings: 168 h, egg deposition after 7 days, read-out: efficacy (infertile eggs); for pest or weed control at 0.004 mg: 4 μg/animal; for pest or weed control at 0.02 mg: 20 μg/animal
Outline: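 Compound was dissolved in DMSO at 10 mg per 0.5 mL and diluted with DMSO to the test concentration. Five engorged adult females received a 1 μL abdominal injection and were kept in a climate chamber. After 7 days, fertile egg deposition was scored, with unclear eggs held until hatching at about 42 days; 100% efficacy means all eggs were infertile.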

[17] = tested on: adult unfed cat fleas (Ctenocephalides felis); test: Ctenocephalides felis oral test; settings: 48 h, 100 ppm in cattle blood, after 2 days
Outline: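 About 20 adult unfed Ctenocephalides felis fed through parafilm on cattle blood dosed with compound (DMSO stock diluted in blood), blood chamber at 37°C, fleas at room temperature. Mortality (%) scored after 2 days; 100% means all fleas killed.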

[18] = tested on: caterpillars of the fall army worm (Spodoptera frugiperda); test: Spodoptera frugiperda spray test (cotton leaves); settings: 168 h
Outline: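 Cotton leaves sprayed with compound in water/DMF with 1000 ppm alkylaryl polyglycol ether emulsifier, ammonium salt and/or penetration enhancer at 1000 ppm added if necessary, then infested with fall armyworm caterpillars. Mortality in % scored after 7 days; 100% means all caterpillars killed.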

[19] = surface concentration 4 mg/m^2, 30 minutes exposure
[20] = surface concentration 20 mg/m^2, 30 minutes exposure

Work on C[C@H](NC(=O)c1cc(OC(F)(F)F)cc(C2CC2)c1)c1nc(N(C)C)nn1-c1ncccn1 [I-138] yielded a pest or weed control at 1 µg/cm2, 100 g/ha [1] of 100%, a pest or weed control at 5 µg/cm2, 500 g/ha [1] of 100% and a mortality at 20 mg/m2 [2] of 90 to 100%. For the same compound, the pest or weed control at 32 µg/disc, 100 g/ha [3] was 100%, the pest or weed control at 5 µg/cm2 [4] was 100% and the mortality at 4 mg/m2 [5, 19] was 90 to 100%. For the same compound, the mortality at 20 mg/m2 [5, 20] was 90 to 100%, the mortality at 4 mg/m2 [6, 19] was 90 to 100% and the mortality at 20 mg/m2 [6, 20] was 90 to 100%. The mortality at 500 g/ha [7] was 100%, the mortality at 100 g/ha ([8]; 100 g/ha) was 90% and the pest or weed control at 5 µg/cm2 [9] was 100%. It also gave a mortality at 100 g/ha [10] of 100%, a mortality at 4 mg/m2 [11, 19] of 90 to 100% and a mortality at 20 mg/m2 [11, 20] of 90 to 100%.
Compound CC(NC(=O)c1cc(Cl)cc(C(F)(F)F)c1)c1nc([S+](C)[O-])nn1-c1ccc(Cl)cn1 (centres unmarked) [I-064] has a mortality at 100 g/ha [12] of 100%, a mortality at 500 g/ha [12] of 100% and a pest or weed control at 20 ppm [13] of 90%. For the same compound, the pest or weed control at 32 µg/disc, 100 g/ha [3] was 100%, the pest or weed control at 160 µg/disc, 500 g/ha [3] was 100% and the mortality at 500 g/ha [14] was 100%. The mortality at 100 g/ha [10] was 100%, the mortality at 500 g/ha [10] was 100% and the mortality at 4 ppm [15] was 100%.
For CC(NC(=O)c1cc(Cl)cc(C(F)(F)F)c1)c1nc(NC(=O)OC(C)(C)C)nn1-c1ccc(Cl)cn1 (centres unmarked) [I-003], the mortality at 500 g/ha [14] was 90%, the pest or weed control at 0.004 mg [16] was 80% and the pest or weed control at 0.02 mg [16] was 100%.
Compound CC(NC(=O)c1cc(Cl)cc(S(C)(=O)=O)c1)c1nc(NC(=O)C2(Cl)CC2)nn1-c1ccc(Cl)cn1 (centres unmarked) [I-012] has a pest or weed control at 1 µg/cm2, 100 g/ha [1] of 100%, a pest or weed control at 5 µg/cm2, 500 g/ha [1] of 100% and a mortality at 100 g/ha [12] of 100%. The mortality at 500 g/ha [12] was 100%, the pest or weed control at 32 µg/disc, 100 g/ha [3] was 100% and the pest or weed control at 160 µg/disc, 500 g/ha [3] was 100%. For the same compound, the pest or weed control at 5 µg/cm2 [4] was 100%, the mortality at 100 ppm [17] was 100% and the mortality at 500 g/ha [14] was 90%. It also gave a mortality at 20 ppm [18] of 100%, a mortality at 500 g/ha ([8]; 500 g/ha) of 90% and a pest or weed control at 0.004 mg [16] of 100%. For the same compound, the pest or weed control at 0.02 mg [16] was 100%, the mortality at 100 g/ha [10] was 100% and the mortality at 500 g/ha [10] was 100%. The mortality at 4 ppm [15] was 100%.
With CC(NC(=O)c1cc(Cl)cc(C(F)(F)F)c1)c1nc(NC(=O)CC(F)(F)F)nn1-c1ccc(Cl)cn1 (centres unmarked) [I-016] the pest or weed control at 32 µg/disc, 100 g/ha [3] was 100%, the pest or weed control at 160 µg/disc, 500 g/ha [3] was 100% and the pest or weed control at 5 µg/cm2 [4] was 100%. The mortality at 100 ppm [17] was 100%, the mortality at 500 g/ha [14] was 90% and the mortality at 20 ppm [18] was 100%. The pest or weed control at 0.004 mg [16] was 100%, the pest or weed control at 0.02 mg [16] was 100% and the mortality at 100 g/ha [10] was 100%. It also gave a mortality at 500 g/ha [10] of 100%.

From patent publication US20230028441A1, “NOVEL HETEROARYL-TRIAZOLE COMPOUNDS AS PESTICIDES” (Bayer Aktiengesellschaft, priority 2019, published 2023)
